Measured values as given in publication PMC4685510, “A Cell Biologist’s Field Guide to Aurora Kinase Inhibitors” (Frontiers in Oncology, 2015).
Like-named read-outs stand apart in the source and are kept apart here.

Experiments:
[1] = system: U2OS cells; experiment: G2 duration live imaging assay (GFP-PCNA; H2B-RFP), U2OS; assay type: cell-based; details: Homo sapiens, read-out: G2/M (G2 duration) IC50
[2] = system: RPE1 cells; experiment: G2 duration live imaging assay (GFP-PCNA; H2B-RFP), RPE1; assay type: cell-based; details: Homo sapiens, RPE-1, read-out: G2/M (G2 duration) IC50
[3] = biological target: 363 human kinases (including Aurora A/B/C) (Homo sapiens, UniProt Q07912); experiment: biochemical; assay type: biochemical; details: ACK1, [ATP] 100 µM; for remaining activity at 0.1 µM: 100 nM; for remaining activity at 0.1 µM / remaining activity at 0.5 µM: read-out: % Enzyme Activity (relative to DMSO controls)
Description: (§4) However, the Aurora A/B selectivity ratios derived from our in vitro and in vivo data can be compared to prioritize inhibitors.

[4] = biological target: 363 human kinases (including Aurora A/B/C) (Homo sapiens, UniProt Q02763); experiment: biochemical; assay type: biochemical; details: TIE2/TEK; for remaining activity at 0.1 µM: 100 nM; for remaining activity at 0.1 µM / remaining activity at 0.5 µM: read-out: % Enzyme Activity (relative to DMSO controls)
Description: as §4

[5] = biological target: 363 human kinases (including Aurora A/B/C) (Homo sapiens, UniProt Q00534); experiment: biochemical; assay type: biochemical; details: for remaining activity at 0.1 µM: 100 nM; for remaining activity at 0.1 µM / remaining activity at 0.5 µM: read-out: % Enzyme Activity (relative to DMSO controls); for remaining activity at 0.5 µM / % Enzyme Activity (relative to DMSO controls): 500 nM
Description: as §4

[6] = biological target: 363 human kinases (including Aurora A/B/C) (Homo sapiens, UniProt P00519); experiment: biochemical; assay type: biochemical; details: ABL1, [ATP] 40 µM
Description: as §4

[7] = biological target: 363 human kinases (including Aurora A/B/C) (Homo sapiens, UniProt P36507); experiment: biochemical; assay type: biochemical; details: MEK2; for remaining activity at 0.1 µM: 100 nM; for remaining activity at 0.1 µM / remaining activity at 0.5 µM: read-out: % Enzyme Activity (relative to DMSO controls)
Description: as §4

[8] = system: pH3(Ser 28) in U2OS cells; experiment: Substrate phosphorylation immunofluorescence assay, pH3(Ser 28), U2OS; assay type: cell-based, human
Procedure: After 8 h cells were fixed with 4% PFA for 20 min at room temperature. The fixed cells were washed with PBS. For immunostaining, cells were permeabilized and blocked with PBS containing 10% normal donkey serum (Jackson ImmunoResearch) and 0.1% Triton-X100 for 1 h at room temperature. Primary antibodies against phospho-LATS2 (Ser 83), phospho-histone H3(Ser 28), and anti-phospho-MPM2 (see Table S3 in Supplementary Material) were incubated for 1 h at room temperature. […] Cells were then washed twice with PBS containing 0.1% Triton-X100. […] Fifty fields per well were imaged with quadruplicate wells for each condition. Image analysis was done using the CV7000 image analysis software (Yokogawa Electric Corporation). Between 100 and 1,000 mitotic cells per condition were segmented applying object identification parameters to select for bright MPM2 labeling. Using a nuclear identifier protocol, minimum intensity thresholds were set for pLATS2(Ser 83) and the pH3(Ser 28) signals, and the resulting identified objects were eroded, dilated, and filtered for size by user-defined thresholds. […] The same thresholds were applied for all of the inhibitor-treated samples, which were processed, imaged, and analyzed in parallel with control DMSO-treated cells. Data were fit using a four-parameter, variable slope fit in Prism (GraphPad).

[9] = system: pAuroraA(Thr 288) in HeLa cells; experiment: Immunoblotting of Aurora A activation loop phosphorylation; assay type: cell-based, human; details: for IC50: Homo sapiens, read-out: IC50 pAuroraA(Thr 288); for Effect on pAuroraA(Thr 288): dose–response
[10] = system: Aurora B; details: cited from earlier work; for IC50: read-out: Aurora B IC50 (Published)
[11] = system: pLATS2(Ser 83) in U2OS cells; experiment: Substrate phosphorylation immunofluorescence assay, pLATS2(Ser 83), U2OS; assay type: cell-based, human; details: for IC50: Homo sapiens, read-out: pLATS2 (Ser83) IC50
Procedure: (§1) We employed the protocol described in Figure 3D to analyze substrate phosphorylation in HeLa cells following treatment with all 10 inhibitors in dose–response. Asynchronous cells were incubated with vehicle (DMSO) or different inhibitor doses for 8 h and then fixed and labeled with a mixture of three antibodies directed against pLATS2(Ser 83), pH3(Ser 28), and MPM2 [which detects mitotic phosphoepitopes; ([86])]. While both the anti-pLATS2(Ser 83) and MPM2 antibodies are mouse monoclonals, they are of different IgG subclasses [IgG2b for anti-pLATS2(Ser 83) and IgG1 for MPM2], and can thus be detected with subclass-specific secondary antibodies (Table S3 in Supplementary Material).
(§2) In control mitotic cells, pLATS2(Ser 83) is concentrated in foci around the spindle poles (Figure 3E; top row – green arrow) and pH3(Ser 28) is on the mitotic chromatin (Figure 3E; top row – red arrow). Selective kinase inhibition should result in loss of one signal but not the other, as illustrated by the example images for specific conditions in Figure 3E (middle and bottom rows). Cells were imaged in 4 channels to visualize pLATS2(Ser 83), pH3(Ser 28), MPM2, and DNA (labeled with Hoechst) and mitotic cells were segmented based on their bright MPM2 labeling (Figure 3E). Intensity and area thresholds were set to select the pLATS2(Ser 83) foci and the pH3(Ser 28)-labeled chromatin in their respective channels in DMSO-treated control cells and the same thresholds were applied for inhibitor-treated cells. The mean fluorescence intensity per pixel was measured to assess the activities of the kinases targeting these two substrate phosphorylation sites.
(§3) Twelve thousand HeLa cells, 10,000 U2OS cells, or 8,000 RPE1 cells were seeded into 96-well glass-bottom Sensoplates (Greiner) 16 h before inhibitor addition. Prior to seeding, the glass-bottom plates were coated with poly-L-lysine (Sigma). […] After 8 h cells were fixed with 4% PFA for 20 min at room temperature. The fixed cells were washed with PBS. For immunostaining, cells were permeabilized and blocked with PBS containing 10% normal donkey serum (Jackson ImmunoResearch) and 0.1% Triton-X100 for 1 h at room temperature. Primary antibodies against phospho-LATS2 (Ser 83), phospho-histone H3(Ser 28), and anti-phospho-MPM2 (see Table S3 in Supplementary Material) were incubated for 1 h at room temperature. […] Cells were then washed twice with PBS containing 0.1% Triton-X100. Image acquisition in four channels was performed using a CV7000 spinning disk confocal system (Yokogawa Electric Corporation) with a 40 × 0.95 NA U-PlanApo objective and 2560 × 2160 pixel sCMOS camera. […] Fifty fields per well were imaged with quadruplicate wells for each condition. Image analysis was done using the CV7000 image analysis software (Yokogawa Electric Corporation). Between 100 and 1,000 mitotic cells per condition were segmented applying object identification parameters to select for bright MPM2 labeling. Using a nuclear identifier protocol, minimum intensity thresholds were set for pLATS2(Ser 83) and the pH3(Ser 28) signals, and the resulting identified objects were eroded, dilated, and filtered for size by user-defined thresholds. For only the MPM2-positive mitotic cells, the mean fluorescence intensity of the identified pLATS2(Ser 83) and pH3(Ser 28) objects was measured, and the average intensity per cell per well was calculated. The same thresholds were applied for all of the inhibitor-treated samples, which were processed, imaged, and analyzed in parallel with control DMSO-treated cells. Data were fit using a four-parameter, variable slope fit in Prism (GraphPad). Primary and secondary antibody dilutions can be found in Table S3 in Supplementary Material.

[12] = system: pLATS2(Ser 83) in RPE1 cells; experiment: Substrate phosphorylation immunofluorescence assay, pLATS2(Ser 83), RPE1; assay type: cell-based, human; details: for IC50: Homo sapiens, read-out: pLATS2 (Ser83) IC50
Procedure: as §1, §2, §3

[13] = biological target: T1, 363 human kinases (including Aurora A/B/C) (Homo sapiens, UniProt Q9UQB9); experiment: biochemical; assay type: biochemical; details: Aurora C, [ATP] 30 µM
T1 sequence (Q9UQB9 1-309): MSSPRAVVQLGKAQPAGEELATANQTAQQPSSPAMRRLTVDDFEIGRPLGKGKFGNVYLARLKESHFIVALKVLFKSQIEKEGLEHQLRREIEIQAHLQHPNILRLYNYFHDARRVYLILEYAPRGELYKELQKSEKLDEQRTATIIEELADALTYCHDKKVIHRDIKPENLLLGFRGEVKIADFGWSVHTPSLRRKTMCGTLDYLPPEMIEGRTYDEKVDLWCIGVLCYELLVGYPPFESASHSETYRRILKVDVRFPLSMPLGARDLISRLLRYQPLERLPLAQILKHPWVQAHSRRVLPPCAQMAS
Description: as §4

[14] = 100 nM, read-out: % Enzyme Activity (relative to DMSO controls)
[15] = 500 nM, read-out: % Enzyme Activity (relative to DMSO controls)

363 human kinases (including Aurora A/B/C) (Homo sapiens, UniProt Q02763), sequence (Q02763 23-1124): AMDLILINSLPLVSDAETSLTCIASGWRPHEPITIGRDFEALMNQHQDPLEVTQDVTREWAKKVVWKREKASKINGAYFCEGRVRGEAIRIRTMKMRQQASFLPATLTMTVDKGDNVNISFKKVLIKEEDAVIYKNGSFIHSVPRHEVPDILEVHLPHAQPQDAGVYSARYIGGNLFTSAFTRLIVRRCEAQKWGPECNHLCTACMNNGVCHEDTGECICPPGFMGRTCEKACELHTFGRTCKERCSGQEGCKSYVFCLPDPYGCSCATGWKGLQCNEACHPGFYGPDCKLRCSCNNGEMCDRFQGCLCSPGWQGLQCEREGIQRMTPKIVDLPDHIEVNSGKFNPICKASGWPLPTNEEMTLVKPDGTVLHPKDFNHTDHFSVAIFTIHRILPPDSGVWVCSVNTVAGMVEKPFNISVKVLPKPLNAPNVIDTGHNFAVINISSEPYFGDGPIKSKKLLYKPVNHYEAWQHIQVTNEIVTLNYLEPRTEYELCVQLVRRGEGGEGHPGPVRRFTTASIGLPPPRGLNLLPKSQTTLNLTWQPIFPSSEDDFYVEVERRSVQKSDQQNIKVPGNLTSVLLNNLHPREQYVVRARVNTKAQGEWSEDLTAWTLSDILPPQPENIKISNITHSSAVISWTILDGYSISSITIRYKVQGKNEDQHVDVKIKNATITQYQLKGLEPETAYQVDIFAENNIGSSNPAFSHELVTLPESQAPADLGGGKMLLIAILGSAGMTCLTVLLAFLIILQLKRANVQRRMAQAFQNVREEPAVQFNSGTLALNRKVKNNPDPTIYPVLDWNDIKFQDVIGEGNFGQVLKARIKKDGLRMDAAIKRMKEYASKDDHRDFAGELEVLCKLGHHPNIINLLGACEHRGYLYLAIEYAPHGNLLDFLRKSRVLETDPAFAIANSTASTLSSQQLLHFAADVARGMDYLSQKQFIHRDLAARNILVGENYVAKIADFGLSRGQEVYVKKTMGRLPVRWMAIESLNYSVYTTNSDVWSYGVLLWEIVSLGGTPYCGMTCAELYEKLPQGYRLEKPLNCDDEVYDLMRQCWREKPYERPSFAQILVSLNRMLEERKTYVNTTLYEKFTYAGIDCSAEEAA
363 human kinases (including Aurora A/B/C) (Homo sapiens, UniProt Q00534), sequence (Q00534 whole entry): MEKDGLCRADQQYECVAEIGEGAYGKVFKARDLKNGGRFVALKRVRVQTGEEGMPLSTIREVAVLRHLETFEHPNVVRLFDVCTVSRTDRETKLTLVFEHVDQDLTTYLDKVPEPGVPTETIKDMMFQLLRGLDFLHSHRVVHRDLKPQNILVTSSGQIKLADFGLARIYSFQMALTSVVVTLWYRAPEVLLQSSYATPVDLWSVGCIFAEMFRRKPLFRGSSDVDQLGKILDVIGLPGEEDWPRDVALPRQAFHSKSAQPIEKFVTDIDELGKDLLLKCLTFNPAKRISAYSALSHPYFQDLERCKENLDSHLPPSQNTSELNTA
363 human kinases (including Aurora A/B/C) (Homo sapiens, UniProt Q07912), sequence (Q07912 whole entry): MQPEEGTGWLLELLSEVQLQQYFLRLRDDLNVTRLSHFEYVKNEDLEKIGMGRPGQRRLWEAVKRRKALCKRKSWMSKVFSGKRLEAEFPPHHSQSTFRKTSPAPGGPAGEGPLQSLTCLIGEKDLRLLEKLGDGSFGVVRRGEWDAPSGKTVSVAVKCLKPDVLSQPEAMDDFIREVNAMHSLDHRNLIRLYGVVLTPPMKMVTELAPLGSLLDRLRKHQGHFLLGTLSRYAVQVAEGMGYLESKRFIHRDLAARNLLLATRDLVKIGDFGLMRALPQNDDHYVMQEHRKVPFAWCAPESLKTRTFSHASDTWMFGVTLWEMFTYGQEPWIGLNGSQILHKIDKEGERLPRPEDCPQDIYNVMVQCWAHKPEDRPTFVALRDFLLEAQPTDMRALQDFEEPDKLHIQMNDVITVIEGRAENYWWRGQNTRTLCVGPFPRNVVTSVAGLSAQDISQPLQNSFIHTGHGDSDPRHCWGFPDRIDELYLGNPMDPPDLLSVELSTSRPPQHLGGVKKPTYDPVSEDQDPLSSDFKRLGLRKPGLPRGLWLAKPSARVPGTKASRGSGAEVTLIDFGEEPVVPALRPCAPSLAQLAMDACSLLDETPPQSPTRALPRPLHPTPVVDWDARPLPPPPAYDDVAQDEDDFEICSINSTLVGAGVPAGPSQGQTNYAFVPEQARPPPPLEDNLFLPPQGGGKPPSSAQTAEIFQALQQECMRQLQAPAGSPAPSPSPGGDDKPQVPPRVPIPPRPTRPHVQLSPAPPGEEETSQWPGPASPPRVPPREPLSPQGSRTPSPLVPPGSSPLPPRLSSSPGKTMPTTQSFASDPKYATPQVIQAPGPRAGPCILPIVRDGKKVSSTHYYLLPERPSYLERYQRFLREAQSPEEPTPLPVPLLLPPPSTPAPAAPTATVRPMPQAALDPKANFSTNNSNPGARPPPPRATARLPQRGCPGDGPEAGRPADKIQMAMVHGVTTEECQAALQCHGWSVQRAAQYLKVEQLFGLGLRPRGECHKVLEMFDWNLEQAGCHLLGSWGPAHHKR
363 human kinases (including Aurora A/B/C) (Homo sapiens, UniProt P00519), sequence (P00519 whole entry): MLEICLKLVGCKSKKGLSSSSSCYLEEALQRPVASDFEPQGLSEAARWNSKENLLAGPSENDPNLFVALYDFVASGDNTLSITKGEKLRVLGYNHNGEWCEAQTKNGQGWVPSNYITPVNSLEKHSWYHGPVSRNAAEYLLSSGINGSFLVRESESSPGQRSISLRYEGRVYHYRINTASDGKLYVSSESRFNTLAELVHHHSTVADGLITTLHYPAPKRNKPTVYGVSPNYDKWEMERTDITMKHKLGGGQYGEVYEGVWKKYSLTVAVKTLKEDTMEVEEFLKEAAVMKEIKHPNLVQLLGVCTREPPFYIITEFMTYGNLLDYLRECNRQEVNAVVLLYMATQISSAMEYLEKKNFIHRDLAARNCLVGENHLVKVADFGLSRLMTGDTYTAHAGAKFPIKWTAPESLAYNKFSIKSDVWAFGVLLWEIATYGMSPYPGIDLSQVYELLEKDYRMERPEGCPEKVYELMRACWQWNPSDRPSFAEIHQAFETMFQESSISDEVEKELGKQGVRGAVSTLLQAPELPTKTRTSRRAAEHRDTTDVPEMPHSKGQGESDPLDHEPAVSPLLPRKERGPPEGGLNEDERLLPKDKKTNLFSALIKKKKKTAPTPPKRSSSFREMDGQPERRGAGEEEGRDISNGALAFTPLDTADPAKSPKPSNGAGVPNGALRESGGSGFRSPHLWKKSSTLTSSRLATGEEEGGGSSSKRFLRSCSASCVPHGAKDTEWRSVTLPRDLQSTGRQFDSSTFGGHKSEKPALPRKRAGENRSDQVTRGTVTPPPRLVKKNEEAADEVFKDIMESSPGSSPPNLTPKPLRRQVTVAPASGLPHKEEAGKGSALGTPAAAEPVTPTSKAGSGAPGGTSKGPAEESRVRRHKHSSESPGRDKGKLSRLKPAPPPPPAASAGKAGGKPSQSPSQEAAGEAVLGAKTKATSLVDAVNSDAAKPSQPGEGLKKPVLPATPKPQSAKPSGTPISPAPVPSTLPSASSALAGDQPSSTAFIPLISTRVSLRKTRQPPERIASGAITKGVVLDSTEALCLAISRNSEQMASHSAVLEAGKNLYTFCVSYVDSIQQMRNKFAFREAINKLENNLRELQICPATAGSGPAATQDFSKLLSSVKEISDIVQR
363 human kinases (including Aurora A/B/C) (Homo sapiens, UniProt P36507), sequence (P36507 whole entry): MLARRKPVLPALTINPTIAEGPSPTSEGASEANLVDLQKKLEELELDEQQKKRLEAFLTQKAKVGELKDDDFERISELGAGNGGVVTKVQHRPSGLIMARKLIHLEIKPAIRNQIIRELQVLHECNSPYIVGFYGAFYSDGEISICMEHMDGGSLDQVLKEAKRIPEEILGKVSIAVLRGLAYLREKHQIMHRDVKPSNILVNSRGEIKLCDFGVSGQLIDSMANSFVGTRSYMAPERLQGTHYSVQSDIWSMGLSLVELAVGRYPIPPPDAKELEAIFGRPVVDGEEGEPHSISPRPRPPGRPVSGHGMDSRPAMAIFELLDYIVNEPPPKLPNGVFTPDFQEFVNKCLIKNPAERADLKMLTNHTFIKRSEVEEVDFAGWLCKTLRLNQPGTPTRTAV

SMILES | IC50 [1] [nM] | IC50 [2] [nM] | remaining activity at 0.1 µM [3] [%] | remaining activity at 0.5 µM ([3]; 500 nM) [%] | remaining activity at 0.1 µM [4] [%] | remaining activity at 0.5 µM ([4]; 500 nM) [%] | remaining activity at 0.1 µM ([5]; CDK6/cyclin D1, [ATP] 20 µM) [%] | remaining activity at 0.5 µM ([5]; CDK6/cyclin D1, [ATP] 20 µM) [%] | remaining activity at 0.1 µM ([5]; CDK6/cyclin D3, [ATP] 30 µM) [%] | remaining activity at 0.5 µM ([5]; CDK6/cyclin D3, [ATP] 30 µM) [%] | remaining activity at 0.5 µM [6, 15] [%] | remaining activity at 0.1 µM [7] [%] | remaining activity at 0.5 µM ([7]; 500 nM) [%] | Effect on pAuroraA(Thr 288) ([9]; immunoblot) | also measured
O=C(O)[C@]1(Cc2cccc(Nc3nccs3)n2)CC[C@@H](Oc2cccc(Cl)c2F)CC1 [MK-5108] | 995 | 877 | 15.8 | 1.62 | 37.9 | 9.27 | 90.3 | 96.2 | 89.7 | 95.1 | 1.92 | 95.6 | 90.3 | completely eliminate Thr 288 phosphorylation | remaining activity at 0.1 µM [6, 14]: 15.6%; inhibition at 15 µM ([8]; Homo sapiens, read-out: pHistone H3 (Ser28) inhibition at highest concentration tested): 20%; IC50 [9]: < 100 nM; IC50 ([10]; ref 56): 14.1 nM; IC50 ([11]; 8 h): 1200 nM; IC50 ([12]; RPE-1, 8 h): 1800 nM
O=C(c1cccc(Cl)c1F)N1CCN(Cc2cccc(Nc3nccs3)n2)CC1 [MK-8745] | 437 | 755 |  | 51.9 |  | 98.2 |  | 96.4 |  | 95.7 | 77.7 |  | 95.2 | completely eliminate Thr 288 phosphorylation | % Enzyme Activity (relative to DMSO controls) ([3]; 500 nM): 50.10%; % Enzyme Activity (relative to DMSO controls) ([4]; 500 nM): 96.47%; % Enzyme Activity (relative to DMSO controls) ([5]; CDK6/cyclin D1, [ATP] 20 µM): 94.81%; % Enzyme Activity (relative to DMSO controls) ([5]; CDK6/cyclin D3, [ATP] 30 µM): 93.71%; % Enzyme Activity (relative to DMSO controls) ([6]; 500 nM): 76.80%; % Enzyme Activity (relative to DMSO controls) ([13]; 500 nM): 46.69%; remaining activity at 0.5 µM [13, 15]: 47.4%; % Enzyme Activity (relative to DMSO controls) ([7]; 500 nM): 93.13%; pHistone H3 (Ser28) IC50 ([8]; 8 h inhibitor treatment): NE@15 µM; IC50 ([9]; immunoblot, taxol-arrested mitotic lysates): < 100 nM; IC50 ([10]; ref 57): 280 nM; IC50 ([11]; 8 h inhibitor treatment): 1700 nM; IC50 ([12]; RPE-1, RPE1, 8 h inhibitor treatment): 2300 nM
CCn1cc(-c2ccnc3[nH]c(-c4cccc(CN(C)C)c4)cc23)c(-c2ccc(NC(=O)N(C)C)cc2)n1 [GSK1070916] |  |  | 83.9 |  | 39.1 |  | 98.8 |  | 102 |  |  | 98.2 |  | did not affect | remaining activity at 0.1 µM [13, 14]: 39.7%; IC50 ([8]; Homo sapiens, 8 h, read-out: pHistone H3 (Ser28) IC50): 8 nM; Effect on Aurora A activity (pAuroraA Thr 288) ([9]; immunoblot, 300 nM (Figure S6)): inhibited Aurora A activity; Ki ([10]; ref 61, read-out: Aurora B-INCENP Ki (Published)): 0.38 nM; pLATS2 (Ser83) IC50 ([11]; 8 h inhibitor treatment): NE@200 nM; pLATS2 (Ser83) IC50 ([12]; RPE1, 8 h inhibitor treatment): NE@200 nM
